One data set has as its target ALK (Homo sapiens, UniProt Q9UM73). The conditions noted are these: cited from earlier work.
Data set [1] has as its system pEGFR (TYR 1068), pSTAT3 (TYR 705), pAKT (SER 473), pERK1/2 (THR 202/TYR 204) in DLD1 cells. The experiment in a line: Western blot of signaling in DLD1 cells. In kind it is cell-based. Particulars: 2 hour (BVN22E antibodies alone: 2 and 24 hour). On the procedure: The effects of BVN22E antibodies were investigated in DLD1 cells via Western Blots, see FIGS. 42 and 43.
The effect of Trametinib treatment in the DLD1 cell line was also assessed in a western blot assay and the results are presented in FIG. 45. […] Inhibition of pStat3 and pERK1/2 were observed, though only at concentrations beyond the physiological concentrations of Trametinib used in patients.
BVN22E antibodies alone inhibited phosphorylation of EGFR.
(In general: A western blot detects proteins with antibodies after separation by electrophoresis.)

The conditions of data set [2]: in vivo; cited from earlier work.

Here are results for four compounds from US12257245B2, “Methods and compositions for inhibition of EGF/EGFR pathway in combination with anaplastic lymphoma kinase inhibitors” (In3Bio Ltd., priority 2018, dated 2025).

ALK, sequence (Q9UM73 19-1620): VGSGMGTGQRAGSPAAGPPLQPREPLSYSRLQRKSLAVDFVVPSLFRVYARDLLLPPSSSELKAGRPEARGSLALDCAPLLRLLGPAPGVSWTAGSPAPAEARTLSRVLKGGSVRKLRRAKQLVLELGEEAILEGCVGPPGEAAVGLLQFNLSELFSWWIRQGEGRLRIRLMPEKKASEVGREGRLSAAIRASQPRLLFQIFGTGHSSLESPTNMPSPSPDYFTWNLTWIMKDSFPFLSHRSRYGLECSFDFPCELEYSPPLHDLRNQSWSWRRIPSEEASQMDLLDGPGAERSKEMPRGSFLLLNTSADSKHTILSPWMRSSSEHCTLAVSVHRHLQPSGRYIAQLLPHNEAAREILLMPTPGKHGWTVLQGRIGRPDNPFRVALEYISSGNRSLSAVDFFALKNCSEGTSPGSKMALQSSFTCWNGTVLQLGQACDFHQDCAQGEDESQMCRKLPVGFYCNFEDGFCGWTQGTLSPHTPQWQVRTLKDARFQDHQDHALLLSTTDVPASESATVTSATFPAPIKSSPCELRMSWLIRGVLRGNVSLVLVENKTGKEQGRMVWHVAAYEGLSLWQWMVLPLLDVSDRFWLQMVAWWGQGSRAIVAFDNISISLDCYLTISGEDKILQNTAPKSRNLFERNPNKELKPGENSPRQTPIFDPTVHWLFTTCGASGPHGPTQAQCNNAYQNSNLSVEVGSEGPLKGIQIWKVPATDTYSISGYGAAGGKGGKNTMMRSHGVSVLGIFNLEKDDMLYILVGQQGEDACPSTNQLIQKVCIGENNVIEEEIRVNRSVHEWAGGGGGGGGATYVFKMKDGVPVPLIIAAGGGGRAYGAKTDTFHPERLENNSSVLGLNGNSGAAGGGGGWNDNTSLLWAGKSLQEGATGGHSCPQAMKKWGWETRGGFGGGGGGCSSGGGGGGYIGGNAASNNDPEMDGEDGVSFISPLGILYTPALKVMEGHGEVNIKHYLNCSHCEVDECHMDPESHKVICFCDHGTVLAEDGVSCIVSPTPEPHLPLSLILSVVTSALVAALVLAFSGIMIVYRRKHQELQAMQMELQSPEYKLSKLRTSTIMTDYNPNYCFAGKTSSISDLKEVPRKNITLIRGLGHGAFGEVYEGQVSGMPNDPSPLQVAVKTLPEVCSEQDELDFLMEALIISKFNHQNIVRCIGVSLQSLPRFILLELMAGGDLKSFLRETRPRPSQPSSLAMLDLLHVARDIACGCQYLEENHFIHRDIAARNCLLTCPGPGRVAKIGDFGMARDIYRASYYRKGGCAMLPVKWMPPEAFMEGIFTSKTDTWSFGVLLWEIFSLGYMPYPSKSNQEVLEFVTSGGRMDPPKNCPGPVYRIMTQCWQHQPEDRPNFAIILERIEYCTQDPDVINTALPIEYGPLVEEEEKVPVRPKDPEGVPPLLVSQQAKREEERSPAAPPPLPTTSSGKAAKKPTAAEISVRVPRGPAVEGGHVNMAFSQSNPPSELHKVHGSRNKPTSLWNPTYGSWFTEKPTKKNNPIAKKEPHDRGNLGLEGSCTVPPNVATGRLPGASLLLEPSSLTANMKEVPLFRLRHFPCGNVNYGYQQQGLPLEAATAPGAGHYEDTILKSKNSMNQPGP

As to `Cc1cc(Nc2ncc(Cl)c(Nc3ccccc3S(=O)(=O)C(C)C)n2)c(OC(C)C)cc1C1CCNCC1` [Ceritinib], the “potency for inhibiting alk compared with crizotinib” value on ALK (relative to crizotinib) is 20 times.
Broadly, the IC50 is the concentration that gives 50% inhibition. As for `C[C@@H]1CN(C(=O)c2ccc(NC(=O)c3cc(O[C@H](C)c4c(Cl)ccc(F)c4Cl)c(N)nn3)cc2)C[C@H](C)N1` [Ensartinib], at ALK, the concentration for half-maximal inhibition (IC50) is less than 0.4 nM.
On to `CC(=O)Nc1cccc(-n2c(=O)n(C3CC3)c(=O)c3c(Nc4ccc(I)cc4F)n(C)c(=O)c(C)c32)c1` [Trametinib], for which the pEGFR result in data set [1] is recorded as “no effect”.
For `C[C@H]1Oc2cc(cnc2N)-c2c(nn(C)c2C#N)CN(C)C(=O)c2ccc(F)cc21` [Lorlatinib], in data set [2], the CNS penetration result is reported as “highly CNS-penetrant”.
